Paper PMC4718634, “Murine GPRC6A Mediates Cellular Responses to L-Amino Acids, but Not Osteocalcin Variants” (PLoS ONE, 2016)
pEC50: −log10 of the molar value. “Also recorded” adds a separate entry of the source. Bridge positions count the residues as written; N and C are the ends. Ends that are not written are not given here.

Assays:
[1] = test system: MIN6 cells; test: Insulin release from MIN6 cells; type: cell-based, murine; settings: mouse OCN 0.03–30 ng/mL, 0.03–100 ng/mL (Fig 6B legend); low and high glucose
Procedure: (§1) MIN6 or βTC-6 cells were seeded in 24-well plates at 170,000 cells per well in DMEM (containing 4.5g/L glucose, 10 mM HEPES, 100 U/ml penicillin, 100 μg/ml streptomycin and 15% de-complemented FBS) and incubated at 37°C / 5% CO2 for 72 h. Cells were then washed with 500 μl PBS and incubated in 500 μl deprivation media (DMEM with zero glucose, 10 mM HEPES, 1 mM Na-pyruvate, 100 U/ml penicillin, 100 μg/ml streptomycin, 15% de-complemented FBS) for 2 h at 37°C. Media was aspirated and after washing with 500 μl PBS, cells were treated with 250 μl of Krebs buffer (250 mM NaCl, 5.9 mM KCl, 1.2 mM MgCl2, 1.3 mM CaCl2, 25 mM HEPES, 0.1% BSA (w/v), and 2 mM or 16.7 mM glucose; pH 7.4) in the presence or absence of test compound. After incubation for 2 h at 37°C, the assay was terminated by placing the plates on ice and supernatants were transferred to a 96-well plate in preparation for insulin ELISA (Alpco) following manufacturer’s instructions. The cell monolayer was washed twice with 500 μl of PBS and then lysed using 250 μl of 1 N NaOH prior to protein measurement by the method of Bradford (1976).
(§2) Concentration-response data were analysed using a three or four parameter logistic function (Motulsky & Christopoulos, 2004) to generate estimates of agonist potency (LogEC50). Data for all HEK293 assays represent the mean ± SEM of at least three independent experiments (except cell impedance, n = 2). For GLP-1 release, the data represent mean ± SEM of three to five independent experiments (except for OCN, wash; n = 2). For insulin release assays, data represent the mean ± SEM of three independent experiments (except for islet studies; n = 2). Insulin release data were normalised to the response to vehicle in either low or high [glucose]. Statistical analysis for GLP-1 release data were performed by one-way ANOVA, followed by Sidak’s multiple comparisons test (treating wash / no wash datasets separately). Statistical analyses for insulin release data were performed by two-way ANOVA (with [glucose] and drug treatment as group variables), followed by Sidak’s multiple comparisons test. Where only high [glucose] groups were evaluated, statistical analysis was by one-way ANOVA followed by Sidak’s multiple comparisons test.

[2] = test system: INS-1(832) cells; test: Label-free cell impedance, INS-1(832) cells; type: cell-based, rat; settings: Gprc6a-negative; EBSS, 2.8 mM glucose; Fig 7; two-way ANOVA, *P < 0.05, **P < 0.01 vs Vehicle; listed as synthetic mouse OCN
Procedure: For INS-1 cells, 100 μl of medium (RPMI 1640 no glucose, 10% FBS, 55 μM β-mercaptoethanol, 1 mM sodium pyruvate, 10 mM HEPES, 100 U/ml penicillin, 100 μg/ml streptomycin, 11.1 mM glucose) was added per well to an E-plate 96 and a background reading taken. Cells were seeded at 2 x 10^4 / well and the plates incubated in the instrument for 48 h. On the day of the experiment, media was changed to EBSS buffer (180 μl; 2.8 mM glucose, 1.8 mM CaCl2, 5.3 mM KCl, 0.8 mM MgSO4, 117 mM NaCl, 26 mM NaHCO3, 1 mM NaH2PO4). After 2 h incubation, cells were stimulated with 20 μl test compound (10 x final) prepared in the same buffer. Data capture and analysis were as for HEK293 cells.

[3] = test system: β-TC6 cells; test: Insulin release from β-TC6 cells; type: cell-based, murine; settings: OCN 0.03–100 ng/ml; both glucose concentrations; S3 Fig A
Procedure: as §1, §2

[4] = test system: GLUTag cells; test: GLP-1 release from GLUTag cells; type: cell-based, murine; settings: 0.01–10 ng/ml; with or without cell washing; 2 h; Fig 6A
Procedure: Intestinal L-cell model GLUTag cells were seeded in 24-well plates coated with Matrigel and incubated for 6 days in DMEM with 10% FBS, 100 U/ml penicillin, 100 μg/ml streptomycin at 37°C in 5% CO2 and grown for 4–5 days. Where indicated, cells were washed (1 or 2 x 1h) with Krebs-HEPES buffer (20 mM HEPES, 118 mM NaCl, 4.7 mM KCl, 1.2 mM MgSO4, 5 mM NaHCO3, 1.2 mM KH2PO4, 2.5 mM CaCl2, 5.5 mM glucose, 0.2% BSA (w/v), pH 7.2) containing vildagliptin (300 μM) prior to addition of test compounds in the same buffer. After 2 h incubation at 37°C in 5% CO2, the supernatant was recovered and centrifuged at 500 rpm for 5 min. Where used, NPS-2143 pre-treatment was for 30 min.
GLP-1 content in the cell supernatant was measured by ELISA (EGLP-35K, Millipore), according to manufacturer’s instructions after overnight incubation of 15 μl supernatant in 100 μl Krebs-HEPES buffer at 4°C. After 5 x washes, 200 μl of detection conjugate was added and incubated for 2 h at RT. After 3 x washes the reaction was developed with 200 μl of diluted substrate (1:200) for 20 min and terminated by addition of 50 μl stop solution. After 5 min, fluorescence was then measured using 355 nm excitation and 460 nm emission, transforming the obtained signal into pmol GLP-1/well/ml and corrected for GLUTag cell protein content as determined using the method of Bradford (1976).
as §2

[5] = test system: GPRC6A; design: method as in PMID 15576628; settings: chimera with goldfish 5.24 receptor and full length GPRC6A; ref [1]; cited from earlier work
[6] = molecular target: T1, mGPRC6A (mouse GPRC6A) (Mus musculus, UniProt Q8K4Z6); test: Ca^2+i mobilisation, FlpIn-TREx-HEK293-mGPRC6A cells; type: cell-based
T1 sequence (Q8K4Z6 21-928): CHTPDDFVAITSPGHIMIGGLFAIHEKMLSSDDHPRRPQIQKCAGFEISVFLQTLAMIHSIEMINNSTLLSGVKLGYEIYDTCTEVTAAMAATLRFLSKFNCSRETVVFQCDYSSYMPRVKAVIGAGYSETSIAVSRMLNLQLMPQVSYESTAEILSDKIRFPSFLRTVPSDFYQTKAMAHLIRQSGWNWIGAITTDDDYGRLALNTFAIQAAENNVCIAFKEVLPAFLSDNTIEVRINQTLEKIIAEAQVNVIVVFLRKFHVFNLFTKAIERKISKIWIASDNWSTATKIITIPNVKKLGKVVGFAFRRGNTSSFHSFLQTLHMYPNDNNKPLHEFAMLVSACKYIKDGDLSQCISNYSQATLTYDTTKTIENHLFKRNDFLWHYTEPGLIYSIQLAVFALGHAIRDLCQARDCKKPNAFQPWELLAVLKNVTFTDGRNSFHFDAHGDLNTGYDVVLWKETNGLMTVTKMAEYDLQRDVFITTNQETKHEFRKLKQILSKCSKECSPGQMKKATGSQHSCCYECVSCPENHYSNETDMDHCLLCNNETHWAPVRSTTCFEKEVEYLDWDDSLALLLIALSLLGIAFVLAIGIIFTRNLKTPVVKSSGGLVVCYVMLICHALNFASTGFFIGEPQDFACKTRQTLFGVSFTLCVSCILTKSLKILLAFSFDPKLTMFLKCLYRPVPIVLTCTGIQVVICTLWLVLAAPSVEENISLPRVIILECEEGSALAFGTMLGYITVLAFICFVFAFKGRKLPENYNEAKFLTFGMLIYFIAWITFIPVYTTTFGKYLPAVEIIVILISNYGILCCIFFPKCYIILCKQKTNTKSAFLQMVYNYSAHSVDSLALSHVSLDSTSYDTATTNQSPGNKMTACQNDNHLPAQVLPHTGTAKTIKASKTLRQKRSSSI
Procedure: (§3) pcDNA 5/FRT/TO constructs were isogenically integrated into a FlpIn-TREx-HEK293 cell line (Life Technologies). FlpIn-TREx-HEK293-mGPRC6A and FlpIn-TREx-HEK293-hGPRC6A cells were then selected using 600 μg/ml hygromycin and 5 μg/ml blasticidin and grown in culture medium consisting of Dulbecco’s Modified Eagle Medium (DMEM), supplemented with 10% (v/v) foetal bovine serum (FBS) at 37°C in 5% CO2 and were sub-cultured in a 1:3 ratio every 3–4 days. Cells were cultured overnight in the presence of 1 μg/ml tetracycline to induce GPRC6A expression. […] 48 h after transfection, cells were selected using 3 μg/ml puromycin and grown as above.
FlpIn-TREx-HEK293-mGPRC6A cells were seeded into T75 flasks at 70% confluency. Cells were transfected with 15μg of plasmid DNA (Gαq or GαqG66D) with Lipofectamine LTX according to manufacturer's instructions, then incubated for 24h at 37°C in 5% CO2. Cells were plated into 96-well plates (10^5 cells/well) and equilibrated at 37°C in 5% CO2 for 4-6h to adhere, whereupon cells were serum starved overnight at 37°C in 5% CO2. For the assay, cells were washed twice in Ca^2+ assay buffer (150 mM NaCl, 2.6 mM KCl, 1.2 mM MgCl2, 10 mM dextrose, 10 mM HEPES, 2.2 mM CaCl2, 0.5% (w/v) BSA and 4 mM probenecid; pH 7.4). Buffer was then replaced with Ca^2+ assay buffer containing 1μM Fluo-4-AM and incubated for 1h at 37°C in 5% CO2. Cells were washed twice more and replaced with Ca^2+ assay buffer at 37°C. Serial dilutions of test agonists were added by injection in a Flexstation™ (Molecular Devices) and fluorescence was measured at 485nm excitation and 520nm emission wavelengths. Agonist responses were normalised to the peak of response to 100 μM ATP.
as §2, with “Data” for “Concentration-response data were analysed using a three or four parameter logistic function (Motulsky & Christopoulos, 2004) to generate estimates of agonist potency (LogEC50). Data”

[7] = molecular target: T1, mGPRC6A (mouse GPRC6A); test: Cyclic AMP accumulation, FlpIn-TREx-HEK293-mGPRC6A cells; type: cell-based; settings: 30 min, 0.5 mM IBMX; Alphascreen; Fig 3A
Procedure: as §3
HEK293-mGPRC6A cells were seeded at a density of 10^5 cells per well into PDL-coated 96-well plates and incubated overnight in DMEM, supplemented with 10% FBS (v/v) at 37°C in 5% CO2. Cells were then incubated in 90 μl of stimulation buffer (HBSS containing 5 mM HEPES, 0.1% BSA (w/v), 0.5 mM IBMX; pH 7.4) for 30 min at 37°C. Test compounds (10 μl at 10 x final) were added and cells were incubated for an additional 30 min at 37°C. The medium was removed and cells were incubated in 50 μl of ice-cold 100% ethanol. Once evaporated, 100 μl of lysis buffer (5 mM HEPES, 0.1% BSA (w/v), 0.3% Tween-20; pH 7.4) was added to the cells and samples were stored at -20°C until further analysis. Samples were analysed using the Alphascreen® cAMP assay kit (Perkin Elmer) following manufacturer instructions. Briefly, 10 μl of lysates were added to a 384-well Optiplate. After addition of 5 μl of acceptor bead mix, plate was incubated at RT for 30 min followed by addition of 15 μl of donor bead mix. After overnight (16 h) incubation at RT, plates were read using the Envision plate reader.

## mouse synthetic OCN: synthetic de-carboxylated mouse osteocalcin, Federation Bioscience (YLGASVPSPDPLEPTREQCELNPACDELSDQYGLKTAYKRIYGITI-OH; disulfide 19-25 (inferred); not fully specified)
[1]
  insulin secretion, OCN: did not affect insulin secretion
[2]
  change in cell impedance (cell index): significant changes in cell impedance; also recorded: Concentration-dependent increases in cell index

## YLYQWLGAPVPYPDPLEPRREVCELNPDCDELADHIGFQEAYRRFYGPV-NH2/-COOH (disulfide) [human synthetic OCN (acid form), synthetic de-carboxylated human osteocalcin, Federation Bioscience]
[3]
  insulin secretion, OCN: no significant effect
[4]
  GLP-1 release, OCN: did not increase GLP-1 release

## NCCCC[C@H](N)C(=O)O [L-lysine]
[5]
  agonist response of GPRC6A: mediates responses to L-amino acids
[6]
  pEC50: 4.80
[6]; calcium mobilisation and inositol phosphate accumulation, Discussion
  potency at murine GPRC6A (calcium and inositol phosphate, words): most potent agonists
[6]; co-expressing GαqG66D, Fig 1D
  rank order of potency, Ca^2+ mobilisation: L-ornithine > L-arginine = L-lysine

## C=C[C@@]1(C)CC(=O)[C@]2(O)[C@@]3(C)[C@@H](O)CCC(C)(C)[C@@H]3[C@H](O)[C@H](OC(C)=O)[C@@]2(C)O1 [forskolin]
[7]
  stimulation of cAMP accumulation: robust increases in cAMP levels
